Test system: MV-4-11 cells
Assay: Gene expression microarray analysis (Affymetrix PrimeView) and GSEA
Format: cell-based, human
Set-up: RFU PODN (11730768_x_at) / Fold change /veh PODN (11730768_x_at) / RFU LINC00158 (11744669_a_at) / Fold change /veh LINC00158 (11744669_a_at) / RFU DUSP10 (11751237_a_at) / Fold change /veh DUSP10 (11751237_a_at) / RFU ID3 (11757404_x_at) / Fold change /veh ID3 (11757404_x_at) / RFU PLEKHG5 (11737974_s_at) / Fold change /veh PLEKHG5 (11737974_s_at) / RFU LRRC4B (11730491_at) / Fold change /veh LRRC4B (11730491_at) / RFU GIMAP4 (11747438_a_at) / Fold change /veh GIMAP4 (11747438_a_at) / RFU KRT8 (11758183_x_at) / Fold change /veh KRT8 (11758183_x_at) / RFU CNN1 (11734310_a_at) / Fold change /veh CNN1 (11734310_a_at) / RFU VPS37D (11726825_at) / Fold change /veh VPS37D (11726825_at) / RFU C10orf10 (11716522_x_at) / Fold change /veh C10orf10 (11716522_x_at) / RFU KIR2DL2 /// KIR2DL4 /// KIR2DL5A /// KIR2DL5B /// KIR2DS1 /// KIR2DS2 /// KIR2DS3 /// KIR2DS4 /// KIR3DL3 /// KIR3DL3 /// KIR3DS1 (11738374_at) / Fold change /veh KIR2DL2 /// KIR2DL4 /// KIR2DL5A /// KIR2DL5B /// KIR2DS1 /// KIR2DS2 /// KIR2DS3 /// KIR2DS4 /// KIR3DL3 /// KIR3DL3 /// KIR3DS1 (11738374_at) / RFU C1QL1 (11718748_at) / Fold change /veh C1QL1 (11718748_at) / RFU TMPRSS4 (11747572_a_at) / Fold change /veh TMPRSS4 (11747572_a_at) / RFU HAMP (11756126_x_at) / Fold change /veh HAMP (11756126_x_at) / RFU RNFT2 (11725882_a_at) / Fold change /veh RNFT2 (11725882_a_at) / RFU NR4A2 (11747474_a_at) / Fold change /veh NR4A2 (11747474_a_at) / RFU ABCC12 (11746883_a_at) / Fold change /veh ABCC12 (11746883_a_at) / RFU TMEM136 (11760407_x_at) / Fold change /veh TMEM136 (11760407_x_at) / RFU CLDN22 /// WWC2 (11732394_at) / Fold change /veh CLDN22 /// WWC2 (11732394_at) / RFU HLA-DPB1 (11760878_x_at) / Fold change /veh HLA-DPB1 (11760878_x_at) / RFU SPINT1 (11716480_a_at) / Fold change /veh SPINT1 (11716480_a_at) / RFU GAP43 (11754022_s_at) / Fold change /veh GAP43 (11754022_s_at) / RFU A4GNT (11735810_at) / Fold change /veh A4GNT (11735810_at) / RFU PRB3 (11715151_x_at) / Fold change /veh PRB3 (11715151_x_at) / RFU TUBB4B (11761932_at) / Fold change /veh TUBB4B (11761932_at) / RFU CAPN14 (11732068_a_at) / Fold change /veh CAPN14 (11732068_a_at) / RFU TMCC2 (11721928_a_at) / Fold change /veh TMCC2 (11721928_a_at) / RFU IRGQ (11745062_a_at) / Fold change /veh IRGQ (11745062_a_at) / RFU FAM174B (11720279_a_at) / Fold change /veh FAM174B (11720279_a_at) / RFU TMPRSS4 (11748680_a_at) / Fold change /veh TMPRSS4 (11748680_a_at) / RFU FAM212B (11763350_a_at) / Fold change /veh FAM212B (11763350_a_at) / RFU PLEKHG5 (11743358_a_at) / Fold change /veh PLEKHG5 (11743358_a_at) / RFU ZSCAN30 (11745921_a_at) / Fold change /veh ZSCAN30 (11745921_a_at) / RFU CMKLR1 (11741424_a_at) / Fold change /veh CMKLR1 (11741424_a_at) / RFU LOC101060620 /// MAPK8IP1 (11723275_at) / Fold change /veh LOC101060620 /// MAPK8IP1 (11723275_at) / RFU SPTSSB (11747773_x_at) / Fold change /veh SPTSSB (11747773_x_at) / RFU PRSS12 (11739890_at) / Fold change /veh PRSS12 (11739890_at) / RFU BIN1 (11741810_x_at) / Fold change /veh BIN1 (11741810_x_at) / RFU WNT11 (11732464_a_at) / Fold change /veh WNT11 (11732464_a_at) / RFU C10orf10 (11716521_a_at) / Fold change /veh C10orf10 (11716521_a_at) / RFU C5orf56 (11738089_at) / Fold change /veh C5orf56 (11738089_at) / RFU CYB561 (11721691_x_at) / Fold change /veh CYB561 (11721691_x_at) / RFU ANKRD19P (11752326_a_at) / Fold change /veh ANKRD19P (11752326_a_at) / RFU OR2T12 /// OR2T33 /// OR2T8 (11738714_s_at) / Fold change /veh OR2T12 /// OR2T33 /// OR2T8 (11738714_s_at) / RFU VCAN (11748164_a_at) / Fold change /veh VCAN (11748164_a_at) / RFU JSRP1 (11732532_at) / Fold change /veh JSRP1 (11732532_at) / RFU KRTAP10-11 (11738290_x_at) / Fold change /veh KRTAP10-11 (11738290_x_at) / RFU MYO3A (11730013_a_at) / Fold change /veh MYO3A (11730013_a_at) / RFU EBF3 (11725865_a_at) / Fold change /veh EBF3 (11725865_a_at) / RFU CAMK2N1 (11719241_x_at) / Fold change /veh CAMK2N1 (11719241_x_at) / RFU C5orf56 (11738088_a_at) / Fold change /veh C5orf56 (11738088_a_at) / RFU OLFML3 (11715873_a_at) / Fold change /veh OLFML3 (11715873_a_at) / RFU LOC100653217 /// NTM (11731650_a_at) / Fold change /veh LOC100653217 /// NTM (11731650_a_at) / RFU MAPK11 (11762145_a_at) / Fold change /veh MAPK11 (11762145_a_at) / RFU FIZ1 (11724087_x_at) / Fold change /veh FIZ1 (11724087_x_at) / RFU OASL (11726364_x_at) / Fold change /veh OASL (11726364_x_at) / RFU SOX15 (11748057_x_at) / Fold change /veh SOX15 (11748057_x_at) / RFU CD79A (11719716_a_at) / Fold change /veh CD79A (11719716_a_at) / RFU HIST1H1D (11736915_at) / Fold change /veh HIST1H1D (11736915_at) / RFU CASKIN2 (11723855_a_at) / Fold change /veh CASKIN2 (11723855_a_at) / RFU LOC730098 (11760151_x_at) / Fold change /veh LOC730098 (11760151_x_at) / RFU OR4N2 (11742367_at) / Fold change /veh OR4N2 (11742367_at) / RFU PRRT2 (11749266_a_at) / Fold change /veh PRRT2 (11749266_a_at) / RFU SNX32 (11753110_a_at) / Fold change /veh SNX32 (11753110_a_at) / RFU CDHR5 (11726645_a_at) / Fold change /veh CDHR5 (11726645_a_at) / RFU RCAN1 (11760418_a_at) / Fold change /veh RCAN1 (11760418_a_at) / RFU FAM167A (11723789_a_at) / Fold change /veh FAM167A (11723789_a_at) / RFU FAM26E (11764081_at) / Fold change /veh FAM26E (11764081_at) / RFU ISYNA1 (11749810_s_at) / Fold change /veh ISYNA1 (11749810_s_at) / RFU ACY1 (11761880_at) / Fold change /veh ACY1 (11761880_at) / RFU 11764098_at / Fold change /veh 11764098_at / RFU SAMD14 (11745864_x_at) / Fold change /veh SAMD14 (11745864_x_at) / RFU NPB (11741838_a_at) / Fold change /veh NPB (11741838_a_at) / RFU TMPRSS6 (11731388_a_at) / Fold change /veh TMPRSS6 (11731388_a_at) / RFU KRTAP10-2 (11738614_at) / Fold change /veh KRTAP10-2 (11738614_at) / RFU ARHGAP8 /// PRR5-ARHGAP8 (11727945_x_at) / Fold change /veh ARHGAP8 /// PRR5-ARHGAP8 (11727945_x_at) / RFU KRTAP5-7 /// NADSYN1 (11734609_at) / Fold change /veh KRTAP5-7 /// NADSYN1 (11734609_at) / RFU RASL12 (11751679_a_at) / Fold change /veh RASL12 (11751679_a_at) / RFU CDKN2B (11736163_a_at) / Fold change /veh CDKN2B (11736163_a_at) / RFU PRF1 (11729649_at) / Fold change /veh PRF1 (11729649_at) / RFU, ZNF638 /// ZNF638-IT1 / Fold change vs veh, ZNF638 /// ZNF638-IT1 / RFU, PANK3 / Fold change vs veh, PANK3 / RFU, SH3YL1 / Fold change vs veh, SH3YL1 / RFU, ZEB2 / Fold change vs veh, ZEB2 / RFU, NRIP1 / Fold change vs veh, NRIP1 / RFU, PTTG1IP / Fold change vs veh, PTTG1IP / RFU, CAPN2 / Fold change vs veh, CAPN2 / RFU, MED14 / Fold change vs veh, MED14 / RFU, SNORA58 / Fold change vs veh, SNORA58 / RFU, C1orf63 / Fold change vs veh, C1orf63 / RFU, LRRFIP1 / Fold change vs veh, LRRFIP1 / RFU, NDUFAF7 / Fold change vs veh, NDUFAF7 / RFU, SLC12A2 / Fold change vs veh, SLC12A2 / RFU, IBTK / Fold change vs veh, IBTK / RFU, ESF1 / Fold change vs veh, ESF1 / Fold change vs veh, TMEM50B / RFU, TAOK1 / Fold change vs veh, TAOK1 / RFU, ACBD3 / Fold change vs veh, ACBD3 / RFU, TMA16 / Fold change vs veh, TMA16 / RFU, RWDD3 / Fold change vs veh, RWDD3 / RFU, BCAT1 / Fold change vs veh, BCAT1 / RFU, EDEM3 / Fold change vs veh, EDEM3 / RFU, TMEM33 / Fold change vs veh, TMEM33 / RFU, WDR75 / Fold change vs veh, WDR75 / RFU, AHCTF1 / Fold change vs veh, AHCTF1 / RFU, TFRC / Fold change vs veh, TFRC / RFU, ZDHHC17 / Fold change vs veh, ZDHHC17 / RFU, NOM1 / Fold change vs veh, NOM1 / RFU, ARL8B / Fold change vs veh, ARL8B / RFU, ZBTB11 / Fold change vs veh, ZBTB11 / RFU, TAMM41 / Fold change vs veh, TAMM41 / RFU, KIAA1704 /// LOC100996395 / Fold change vs veh, KIAA1704 /// LOC100996395 / RFU, ING1 / Fold change vs veh, ING1 / RFU, TRMT61B / Fold change vs veh, TRMT61B / RFU, FUBP3 / Fold change vs veh, FUBP3 / RFU, TP53 / Fold change vs veh, TP53 / RFU, TNKS2 / Fold change vs veh, TNKS2 / RFU, ZFP14 / Fold change vs veh, ZFP14 / RFU, ACTR2 / Fold change vs veh, ACTR2 / RFU, PPP3R1 / Fold change vs veh, PPP3R1 / RFU, PIK3R1 / Fold change vs veh, PIK3R1 / RFU, HNRNPA1 / Fold change vs veh, HNRNPA1 / RFU, RNF170 / Fold change vs veh, RNF170 / RFU, ZNF28 / Fold change vs veh, ZNF28 / RFU, RNGTT / Fold change vs veh, RNGTT / RFU, OGT / Fold change vs veh, OGT / RFU, BRD1 / Fold change vs veh, BRD1 / RFU, MARS / Fold change vs veh, MARS / RFU, ZNF655 / Fold change vs veh, ZNF655 / RFU, FAHD1 / Fold change vs veh, FAHD1 / RFU, BDP1 / Fold change vs veh, BDP1 / RFU, LRRCC1 / Fold change vs veh, LRRCC1 / RFU, ARID1A / Fold change vs veh, ARID1A / RFU, ZNF146 / Fold change vs veh, ZNF146 / RFU, ZNF330 / Fold change vs veh, ZNF330 / RFU, GPN3 / Fold change vs veh, GPN3 / RFU, C9orf123 / Fold change vs veh, C9orf123 / RFU, N4BP2L2 / Fold change vs veh, N4BP2L2 / RFU, ARFIP1 / Fold change vs veh, ARFIP1 / RFU, FAM179B / Fold change vs veh, FAM179B / RFU, BCL10 / Fold change vs veh, BCL10 / RFU, UHRF1BP1L / Fold change vs veh, UHRF1BP1L / RFU, BET1 / Fold change vs veh, BET1 / RFU, CNOT2 / Fold change vs veh, CNOT2 / RFU, ZNF268 / Fold change vs veh, ZNF268 / Fold change vs veh, ZNF507 / RFU, DGCR2 / Fold change vs veh, DGCR2 / RFU, WDSUB1 / Fold change vs veh, WDSUB1 / Fold change vs veh, HSP90B1 /// MIR3652 / RFU, ADSS / Fold change vs veh, ADSS / RFU, GK / Fold change vs veh, GK / RFU, ZNF148 / Fold change vs veh, ZNF148 / RFU, TAF9 / Fold change vs veh, TAF9 / RFU, SLC1A5 / Fold change vs veh, SLC1A5 / RFU, SLMO2 / Fold change vs veh, SLMO2 / RFU, ABCC4 / Fold change vs veh, ABCC4 / RFU, LOC101060439 /// RAP1B / Fold change vs veh, LOC101060439 /// RAP1B / RFU, RFX7 / Fold change vs veh, RFX7 / RFU, GTPBP10 / Fold change vs veh, GTPBP10 / RFU, CNEP1R1 / Fold change vs veh, CNEP1R1 / RFU, BIVM-ERCC5 /// ERCC5 / Fold change vs veh, BIVM-ERCC5 /// ERCC5 / RFU, ILF3 / Fold change vs veh, ILF3 / RFU 11762660_at / Fold change /veh 11762660_at / RFU VCAN (11757783_s_at) / Fold change /veh VCAN (11757783_s_at) / RFU DDX43 (11728927_at) / Fold change /veh DDX43 (11728927_at) / RFU KRT8 (11758188_x_at) / Fold change /veh KRT8 (11758188_x_at) / RFU NKD1 (11759106_at) / Fold change /veh NKD1 (11759106_at) / RFU SRD5A1 (11742802_a_at) / Fold change /veh SRD5A1 (11742802_a_at) / RFU TPSAB1 /// TPSB2 (11721975_s_at) / Fold change /veh TPSAB1 /// TPSB2 (11721975_s_at) / RFU GSTM3 (11746129_a_at) / Fold change /veh GSTM3 (11746129_a_at) / RFU IL23R (11737362_x_at) / Fold change /veh IL23R (11737362_x_at) / RFU TMEM51 (11727254_a_at) / Fold change /veh TMEM51 (11727254_a_at) / RFU PIWIL2 (11732686_x_at) / Fold change /veh PIWIL2 (11732686_x_at) / RFU ORM1 (11744905_x_at) / Fold change /veh ORM1 (11744905_x_at) / RFU CCDC152 (11743942_at) / Fold change /veh CCDC152 (11743942_at) / RFU ECM1 (11717891_a_at) / Fold change /veh ECM1 (11717891_a_at) / RFU IL23R (11748794_a_at) / Fold change /veh IL23R (11748794_a_at) / RFU TNFAIP8L3 (11732012_x_at) / Fold change /veh TNFAIP8L3 (11732012_x_at) / RFU MBOAT4 (11741988_at) / Fold change /veh MBOAT4 (11741988_at) / RFU 11764193_at / Fold change /veh 11764193_at / RFU TMEM53 (11763286_at) / Fold change /veh TMEM53 (11763286_at) / RFU MAGEB2 (11727129_at) / Fold change /veh MAGEB2 (11727129_at) / RFU TMEM200A (11744735_a_at) / Fold change /veh TMEM200A (11744735_a_at) / RFU CCDC152 (11751479_a_at) / Fold change /veh CCDC152 (11751479_a_at) / RFU FAM211A (11726209_a_at) / Fold change /veh FAM211A (11726209_a_at) / RFU RGS16 (11746705_a_at) / Fold change /veh RGS16 (11746705_a_at) / RFU VCAN (11755009_s_at) / Fold change /veh VCAN (11755009_s_at) / RFU RHOB (11743442_s_at) / Fold change /veh RHOB (11743442_s_at) / RFU RGS16 (11720943_a_at) / Fold change /veh RGS16 (11720943_a_at) / RFU RGS16 (11720944_at) / Fold change /veh RGS16 (11720944_at) / RFU, VPS4B / Fold change vs veh, VPS4B / RFU, CREB1 / Fold change vs veh, CREB1 / RFU, DNAJC13 / Fold change vs veh, DNAJC13 / RFU, GNAQ / Fold change vs veh, GNAQ / RFU, CDK5R1 / Fold change vs veh, CDK5R1 / RFU, ZRANB3 / Fold change vs veh, ZRANB3 / RFU, CUL4A / Fold change vs veh, CUL4A / RFU, CCNY / Fold change vs veh, CCNY / RFU, UFL1 / Fold change vs veh, UFL1 / RFU, COG3 / Fold change vs veh, COG3 / RFU, DIAPH2 / Fold change vs veh, DIAPH2 / RFU, SKA2 / Fold change vs veh, SKA2 / RFU, AFF3 / Fold change vs veh, AFF3 / RFU, LMF1 / Fold change vs veh, LMF1 / RFU, IPO11 / Fold change vs veh, IPO11 / RFU, DFFB / Fold change vs veh, DFFB / RFU, FOXP1 / Fold change vs veh, FOXP1 / RFU, CARD8 / Fold change vs veh, CARD8 / RFU, STRN3 / Fold change vs veh, STRN3 / RFU, ADK / Fold change vs veh, ADK / RFU, RASSF2 / Fold change vs veh, RASSF2 / RFU, WIPF1 / Fold change vs veh, WIPF1 / RFU, LARP1B / Fold change vs veh, LARP1B / RFU, RASA1 / Fold change vs veh, RASA1 / RFU, RB1 / Fold change vs veh, RB1 / RFU, PPFIA1 / Fold change vs veh, PPFIA1 / RFU, MAT2A / Fold change vs veh, MAT2A / RFU, CCT5 / Fold change vs veh, CCT5 / RFU, WDR92 / Fold change vs veh, WDR92 / RFU, CUX1 / Fold change vs veh, CUX1 / RFU, TTC7A / Fold change vs veh, TTC7A / RFU, TMEM135 / Fold change vs veh, TMEM135 / RFU, DEPTOR / Fold change vs veh, DEPTOR / RFU, CPM / Fold change vs veh, CPM / RFU, DNAJB6 / Fold change vs veh, DNAJB6 / RFU, CACNA2D3 / Fold change vs veh, CACNA2D3 / RFU, DTX4 / Fold change vs veh, DTX4 / RFU, TFCP2 / Fold change vs veh, TFCP2 / RFU, GMCL1 /// GMCL1P1 / Fold change vs veh, GMCL1 /// GMCL1P1 / RFU, AEBP2 / Fold change vs veh, AEBP2 / RFU, SNHG1 /// SNORD22 /// SNORD25 /// SNORD26 /// SNORD27 /// SNORD28 /// SNORD29 /// SNORD31 / Fold change vs veh, SNHG1 /// SNORD22 /// SNORD25 /// SNORD26 /// SNORD27 /// SNORD28 /// SNORD29 /// SNORD31 / Fold change (Aza/veh), C12orf56 (ProbeSet 11735607_a_at) / Fold change (ACY-1035/veh), C12orf56 (ProbeSet 11735607_a_at) / Fold change (Aza/veh), FGFR1OP (ProbeSet 11751329_s_at) / Fold change (ACY-1035/veh), FGFR1OP (ProbeSet 11751329_s_at) / Fold change (Aza/veh), VPS36 (ProbeSet 11739960_a_at) / Fold change (ACY-1035/veh), VPS36 (ProbeSet 11739960_a_at) / RFU SYPL1 (11715823_x_at) / Fold change /veh SYPL1 (11715823_x_at) / RFU IGFBP7 (11715501_s_at) / Fold change /veh IGFBP7 (11715501_s_at) / RFU REEP3 (11722064_at) / Fold change /veh REEP3 (11722064_at) / RFU IGLL1 (11728026_x_at) / Fold change /veh IGLL1 (11728026_x_at): dose or concentration left out as unconfirmed
Conditions: ProbeSet 11747937_a_at; LIST D

Compound: Nc1ncn([C@@H]2O[C@H](CO)[C@@H](O)[C@H]2O)c(=O)n1 [azacitidine]
- RFU, DNAJB6: 212.79 RFU
